PubChem BioAssay AID1259408 (Genetic Toxicology Data Bank (GENE-TOX), 2018)
Active and inactive are the calls of the source. The rule behind the calls is not given here.

Tested on: GENE-TOX genotoxicity assays, various organisms and cells
Experiment: GENE-TOX mutagenicity studies
Settings: for call: Assay Type: In vivo carcinogenicity studies, Assay Code: CCG+
[1] = Species/Cell Type: Drosophila melanogaster, Assay Type: Sex-linked recessive lethal gene mutation, Assay Code: SRL+, Evaluation Type: Evaluation A (Pre-1980)
[2] = Species/Cell Type: Nonhuman, Evaluation Type: Evaluation A (Pre-1980)
[3] = Species/Cell Type: Salmonella typhimurium (one or more of the five standard strains: TA98, TA100, TA1535, TA1537, and TA1538), Assay Type: Histidine reverse gene mutation, Ames assay, Assay Code: SAL+*, Activation: With metabolic activation, Evaluation Type: Evaluation A (Pre-1980)
[4] = Species/Cell Type: Syrian hamster embryo (SA7/SHE) cells, Assay Type: Cell transformation, viral enhanced, Assay Code: CT7+, Evaluation Type: Evaluation A (Pre-1980)
[5] = Species/Cell Type: Salmonella typhimurium (one or more of the five standard strains: TA98, TA100, TA1535, TA1537, and TA1538), Assay Type: Histidine reverse gene mutation, Ames assay, Assay Code: SALT, Evaluation Type: Evaluation A (Pre-1980)
[6] = Species/Cell Type: Human lymphocytes, Assay Type: Sister-chromatid exchange (SCE) in vitro, Assay Code: SCL+, Evaluation Type: Evaluation B (Post-1980)
[7] = Species/Cell Type: Nonhuman, Assay Type: Sister-chromatid exchange (SCE) in vivo, Assay Code: SC3T, Evaluation Type: Evaluation B (Post-1980)
[8] = Species/Cell Type: Drosophila melanogaster, Assay Type: Sex-linked recessive lethal gene mutation, Assay Code: SRLT, Evaluation Type: Evaluation A (Pre-1980)
[9] = Species/Cell Type: Glycine max (soybean), Assay Type: Gene mutation, Assay Code: GLM-, Evaluation Type: Evaluation A (Pre-1980)
[10] = Species/Cell Type: Human lymphocytes, Assay Type: Sister-chromatid exchange (SCE) in vitro, Assay Code: SCLT, Evaluation Type: Evaluation A (Pre-1980)
[11] = Species/Cell Type: Human, Assay Type: Sister-chromatid exchange (SCE) in vitro, Assay Code: SC1+D, Dose Response: With dose response, Evaluation Type: Evaluation B (Post-1980)
[12] = Species/Cell Type: Human, Assay Type: Sister-chromatid exchange (SCE) in vitro, Assay Code: SC1T, Evaluation Type: Evaluation A (Pre-1980)
[13] = Species/Cell Type: Chinese hamster lung (V79) cells, Assay Type: Forward gene mutation at the HPRT or ouabain locus, Assay Code: V79-, Evaluation Type: Evaluation A (Pre-1980)
[14] = Species/Cell Type: Nonhuman, Assay Type: Sister-chromatid exchange (SCE) in vitro, Assay Code: SC2T, Evaluation Type: Evaluation B (Post-1980)
[15] = Species/Cell Type: Salmonella typhimurium (one or more of the five standard strains: TA98, TA100, TA1535, TA1537, and TA1538), Assay Type: Histidine reverse gene mutation, Ames assay, Assay Code: SAL+, Evaluation Type: Evaluation A (Pre-1980)
[16] = Species/Cell Type: Mammalian polychromatic erythrocytes, Assay Type: Micronucleus test, chromosome aberrations, Assay Code: MNTT, Evaluation Type: Evaluation B (Post-1980)
[17] = Species/Cell Type: Saccharomyces cerevisiae, Assay Type: Mitotic recombination or gene conversion, Assay Code: YEC+, Evaluation Type: Evaluation A (Pre-1980)

For `ClCCCl`, the mutagenic call (Species/Cell Type: Chinese hamster ovary (CHO) cells, Assay Type: Forward gene mutation at the HPRT locus, Assay Code: CHO+, Evaluation Type: Evaluation B (Post-1980)) was “active; positive”, the mutagenic call (Species/Cell Type: Drosophila melanogaster, Assay Type: Aneuploidy, sex chromosome gain, chromosome aberrations, Assay Code: DAG+F, Evaluation Type: Evaluation A (Pre-1980)) was “active; positive” and the mutagenic call (Species/Cell Type: Drosophila melanogaster, Assay Type: Aneuploidy, whole sex chromosome loss, chromosome aberrations, Assay Code: DAC+F, Evaluation Type: Evaluation A (Pre-1980)) was “active; positive”. The mutagenic call [1] was “active; positive”, the mutagenic call (Species/Cell Type: Escherichia coli polA (W3119 vs P3478), Assay Type: Rec-assay, DNA effects (bacterial DNA repair), Assay Code: RE1+, Evaluation Type: Evaluation A (Pre-1980)) was “active; positive” and the call [2] was “active; positive”. The mutagenic call [3] was “active; positive”, the mutagenic call (Species/Cell Type: Salmonella typhimurium, Assay Type: Forward and reverse gene mutation, body fluid assay, Assay Code: BFU+, Evaluation Type: Evaluation A (Pre-1980)) was “active; positive” and the mutagenic call [4] was “active; positive”.
For `O=Cc1ccccc1`, the mutagenic call (Species/Cell Type: Neurospora crassa, Assay Type: Reverse gene mutation, Assay Code: NER+, Evaluation Type: Evaluation A (Pre-1980)) was “active; positive”.
In the case of `Clc1cccc(C2CO2)c1` (centres undefined), the mutagenic call (Species/Cell Type: Escherichia coli WP2 UVRA, Assay Type: Tryptophan reverse gene mutation, Assay Code: WPU+D, Dose Response: With dose response, Evaluation Type: Evaluation A (Pre-1980)) is reported as “active; positive” and the mutagenic call [5] is reported as “no conclusion”.
In the case of `CC(C)OC(N)=O`, the mutagenic call (Species/Cell Type: Nonhuman, Assay Type: Sister-chromatid exchange (SCE) in vivo, Assay Code: SC3+D, Dose Response: With dose response, Evaluation Type: Evaluation B (Post-1980)) is reported as “active; positive”.
`CCN(O)CC` was tested, and the mutagenic call [1] was “active; positive”, the mutagenic call (Species/Cell Type: Human diploid fibroblasts, Assay Type: Unscheduled DNA synthesis (UDS) in vitro, DNA effects, Assay Code: UDH+, Evaluation Type: Evaluation A (Pre-1980)) was “active; positive” and the mutagenic call (Species/Cell Type: Mammalian polychromatic erythrocytes, Assay Type: Micronucleus test, chromosome aberrations, Assay Code: MNTT, Evaluation Type: Evaluation A (Pre-1980)) was “no conclusion”. The mutagenic call (Species/Cell Type: Rodents, Sex: Male, Assay Type: Dominant lethal test, Assay Code: DLTT, Evaluation Type: Evaluation A (Pre-1980)) was “no conclusion”.
For `[CH3][Hg][Cl]`, the mutagenic call (Species/Cell Type: Bacillus subtilis (H17 vs M45), Assay Type: Rec-assay, spot test, DNA effects (bacterial DNA repair), Assay Code: REW+, Evaluation Type: Evaluation A (Pre-1980)) was “active; positive”, the mutagenic call [6] was “active; positive” and the mutagenic call (Species/Cell Type: Human, Assay Type: Sister-chromatid exchange (SCE) in vitro, Assay Code: SC1+, Evaluation Type: Evaluation B (Post-1980)) was “active; positive”. For the same compound, the mutagenic call [7] was “no conclusion” and the mutagenic call (Species/Cell Type: Rodents, Sex: Male, Assay Type: Dominant lethal test, Assay Code: DLT-, Evaluation Type: Evaluation A (Pre-1980)) was “inactive; negative”.
`Nc1ccn([C@@H]2O[C@H](CO)[C@@H](O)C2O)c(=O)n1` (some centres undefined) was tested, and the mutagenic call (Species/Cell Type: Chinese hamster lung (V79) cells, Assay Type: Forward gene mutation at the HPRT or ouabain locus, Assay Code: V79+, Evaluation Type: Evaluation A (Pre-1980)) was “active; positive”, the mutagenic call [8] was “no conclusion” and the mutagenic call (Species/Cell Type: Ehrlich ascites tumor (mouse) cells, Assay Type: Chromosome aberrations, DNA effects, host-mediated assay, Assay Code: HMH+, Evaluation Type: Evaluation A (Pre-1980)) was “active; positive”. The mutagenic call [9] was “inactive; negative”, the mutagenic call (Species/Cell Type: Human lymphocytes or leukocytes, Assay Type: Chromosome aberrations in vitro, Assay Code: CY7+, Evaluation Type: Evaluation A (Pre-1980)) was “active; positive” and the mutagenic call [6] was “active; positive”. For the same compound, the mutagenic call [10] was “no conclusion”, the mutagenic call [11] was “active; positive” and the mutagenic call [12] was “no conclusion”. The mutagenic call (Species/Cell Type: Mammalian polychromatic erythrocytes, Assay Type: Micronucleus test, chromosome aberrations, Assay Code: MNT+, Evaluation Type: Evaluation B (Post-1980)) was “active; positive”, the mutagenic call (Species/Cell Type: Mouse (C3H/10T1/2) cells, Assay Type: Cell transformation, Assay Code: CTH+, Evaluation Type: Evaluation A (Pre-1980)) was “active; positive” and the mutagenic call (Species/Cell Type: Nonhuman, Assay Type: Sister-chromatid exchange (SCE) in vitro, Assay Code: SC2+D, Dose Response: With dose response, Evaluation Type: Evaluation B (Post-1980)) was “active; positive”. The mutagenic call (Species/Cell Type: Nonhuman, Assay Type: Sister-chromatid exchange (SCE) in vivo, Assay Code: SC3T, Evaluation Type: Evaluation A (Pre-1980)) was “no conclusion”, the mutagenic call [4] was “active; positive” and the mutagenic call (Species/Cell Type: Syrian hamster embryo (SHE) cells, Assay Type: Cell transformation, clonal assay, Assay Code: CTC+, Evaluation Type: Evaluation A (Pre-1980)) was “active; positive”.
`CN(C)Cc1cc(Br)ccc1OCC(=O)NN` was tested, and the mutagenic call (Species/Cell Type: Saccharomyces cerevisiae, Assay Type: Reverse gene mutation, Assay Code: YERT, Evaluation Type: Evaluation A (Pre-1980)) was “no conclusion”.
With `COC/C=C(C)/C=C/C=C(C)/C=C/C1=C(C)CCCC1(C)C` the mutagenic call [11] was “active; positive”.
`O=c1c(=O)c2cc3ccccc3c3ccc4cccc1c4c23` was tested, and the mutagenic call [13] was “inactive; negative” and the mutagenic call [5] was “no conclusion”.
`CC[C@@]1(O)C[C@H](O[C@H]2C[C@H](NC)[C@H](O[C@H]3C[C@H](O)[C@H](O[C@H]4CCC(=O)[C@H](C)O4)[C@H](C)O3)[C@H](C)O2)c2c(cc3c(c2O)C(=O)c2c(O)cccc2C3=O)[C@H]1C(=O)OC` was tested, and the mutagenic call [5] was “no conclusion”.
With `Nc1ccn([C@H]2C[C@H](O)[C@@H](CO)O2)c(=O)n1` the mutagenic call [13] was “inactive; negative”, the mutagenic call [9] was “inactive; negative” and the mutagenic call [10] was “no conclusion”. For the same compound, the mutagenic call [12] was “no conclusion” and the mutagenic call [14] was “no conclusion”.
With `COc1ccc(C)cc1N` the call [2] was “active; positive”.
In the case of `O=C(NO)c1ccccc1O`, the mutagenic call [15] is reported as “active; positive”.
With `CCCCN(CCC(C)=O)N=O` the mutagenic call [3] was “active; positive”.
For `C/C=C/c1ccc2c(c1)OCO2`, the call [2] was “active; positive”.
For `CCOC(=O)Nc1ncc(-c2ccc(Cl)cc2)[nH]1`, the mutagenic call (Species/Cell Type: Salmonella typhimurium, Assay Type: Forward and reverse gene mutation, host-mediated assay, Assay Code: HMAT, Evaluation Type: Evaluation A (Pre-1980)) was “no conclusion”.
`O=C(Nc1cc(Cl)cc(Cl)c1O)c1c(O)c(Cl)cc(Cl)c1Cl` was tested, and the mutagenic call [16] was “no conclusion”.
With `O=NN(CCCl)C(=O)NCCNC(=O)N(CCCl)N=O` the mutagenic call [1] was “active; positive” and the mutagenic call [17] was “active; positive”.
In the case of `OC(CCl)OC(O)CCl` (centres undefined), the mutagenic call [15] is reported as “active; positive”.
With `Cc1cc(Cl)ccc1OCCCC(=O)O` the mutagenic call (Species/Cell Type: Drosophila melanogaster, Assay Type: Sex-linked recessive lethal gene mutation, Assay Code: SRL-, Evaluation Type: Evaluation A (Pre-1980)) was “inactive; negative” and the mutagenic call (Species/Cell Type: Salmonella typhimurium, Serratia marcesens, Assay Type: Forward and reverse gene mutation, host-mediated assay, Assay Code: HM2-, Evaluation Type: Evaluation A (Pre-1980)) was “inactive; negative”.
For `CCC1(c2ccccc2)C(=O)N=C(O)NC1=O` (centres undefined), the mutagenic call [8] was “no conclusion”, the mutagenic call (Species/Cell Type: Mouse, Sex: Male, Assay Type: Sperm morphology, Assay Code: SPI-, Evaluation Type: Evaluation A (Pre-1980)) was “inactive; negative” and the mutagenic call [7] was “no conclusion”. The mutagenic call (Species/Cell Type: Salmonella typhimurium (one or more of the five standard strains: TA98, TA100, TA1535, TA1537, and TA1538), Assay Type: Histidine reverse gene mutation, Ames assay, Assay Code: SAL-, Evaluation Type: Evaluation A (Pre-1980)) was “inactive; negative”.
`C/C=C/c1cn([C@H]2C[C@H](O)[C@@H](CO)O2)c(=O)[nH]c1=O` was tested, and the mutagenic call [11] was “active; positive”.
In the case of `O=C1CCCc2c1ccc1c2ccc2ccccc21`, the mutagenic call [3] is reported as “active; positive”.
For `C[N+](=O)[O-]`, the mutagenic call [16] was “no conclusion”.
`Cc1ccc(NC(=O)N(CCCl)N=O)cc1NC(=O)N(CCCl)N=O` was tested, and the mutagenic call [17] was “active; positive”.
With `O=C([O-])[O-].[Cd+2]` the mutagenic call (Species/Cell Type: Nonhuman, Assay Type: Sister-chromatid exchange (SCE) in vitro, Assay Code: SC2+, Evaluation Type: Evaluation B (Post-1980)) was “active; positive”.
In the case of `CC#CC#CC#Cc1ccccc1`, the mutagenic call [14] is reported as “no conclusion”.
With `Nc1cc2c3ccccc3ccc2c2ccccc12` the mutagenic call [3] was “active; positive”.
